In BindingDB's records for doi:10.1021/bi500959t (University of Western Ontario, 2015):

Assays:
[1] = molecular target: T1, Ribosyldihydronicotinamide dehydrogenase [quinone] (Homo sapiens, UniProt P16083); assay: Inhibition of Steady-State Catalysis Assay
T1 sequence (P16083 whole entry): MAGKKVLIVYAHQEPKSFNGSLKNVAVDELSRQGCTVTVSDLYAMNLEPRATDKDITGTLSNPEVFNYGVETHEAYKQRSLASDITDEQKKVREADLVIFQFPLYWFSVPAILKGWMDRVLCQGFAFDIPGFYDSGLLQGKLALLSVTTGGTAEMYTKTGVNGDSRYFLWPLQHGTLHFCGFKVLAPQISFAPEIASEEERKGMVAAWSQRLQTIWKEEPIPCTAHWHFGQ
Protocol: To determine the IC50 value of each inhibitor, reactions were initiated by addition of 154 pM NQO2 to a reaction buffer containing 150 μM SCDP and 5 μM menadione with TBB (0.625−640 μM), TBBz (2.5−640 nM), or DMAT (2.5−640 nM).

[2] = molecular target: T1, Ribosyldihydronicotinamide dehydrogenase [quinone]; assay: Fluorescence Titration Assay
Protocol: To assess direct binding of inhibitors to oxidized NQO2 (NQO2ox), fluorescence quenching of FAD was monitored with an excitation wavelength of 350 nm and an emission wavelength of 430 nm. NQO2 (775 or 38.75 nM) was titrated with the indicated concentrations of TBB, TBBz, and DMAT.

| SMILES | IC50 [1] [µM] | Kd [2] [µM] |
| --- | --- | --- |
| Brc1c(Br)c(Br)c2[nH]nnc2c1Br | 12.8 | 7.11 |
| CN(C)c1nc2c(Br)c(Br)c(Br)c(Br)c2[nH]1 [2-(dimethylamino)-4,5,6,7-tetrabromo-1H-benzimidazole] | 0.484 | 0.0364 |
| Brc1c(Br)c(Br)c2[nH]cnc2c1Br [4,5,6,7-tetrabromo-1H-benzimidazole] | 0.0794 | 0.0181 |
